# Experimental data reported in US6710049B2, “Azole compounds as anti-fungal agents” (Ranbaxy Laboratories Limited, priority 2000, dated 2004).
# How the values were obtained:
# C neoformans M-106 = assay: MIC determination (NCCLS broth method); type: cell-based, Cryptococcus neoformans
# Text: (§1) The in-vitro evaluation of the antifungal activity of the compounds can be performed by determining the minimum inhibitory concentration (MIC) as shown in Table 1 which is the concentration of the test compound in Rosewell Park Memorial Institute (RPMI) 1640 liquid medium buffered with 3-(Morpholino)propanesulphonic acid (MOPS) to pH 7, at which there is significant inhibition of the particular fungi. In practice the National Committee for Clinical Laboratory Standard (NCCLS) M27A document for Candida and Cryptococcus and M38P for Aspergillus was used to determine the MIC against yeast and filamentous fungi with suitable modifications for dermatophytes to other filamentous fungi. Three quality control strains were included each time the MIC were determined and readings recorded only when the Quality Control results fell into the acceptable range. After MIC results had been recorded, 100 μl from each of the well showing no growth was spread over Sabouraud Dextrose Agar (SDA) to determine the minimum fungicidal concentration (MFC) as shown in Table 2.
# C neoformans I = assay: MIC determination (NCCLS broth method); type: cell-based, Cryptococcus neoformans
# Text: as §1
# C albicans Y01.19 = assay: MIC determination (NCCLS broth method); type: cell-based, Candida albicans
# Text: as §1
# A fumigatus L - 1034 = assay: MIC determination (NCCLS broth method); type: cell-based, Aspergillus fumigatus
# Text: as §1
# A fumigatus PGI - 1023 = assay: MIC determination (NCCLS broth method); type: cell-based, Aspergillus fumigatus
# Text: as §1
# A fumigatus I - 1011 = assay: MIC determination (NCCLS broth method); type: cell-based, Aspergillus fumigatus
# Text: as §1
# A fumigatus SI-1 - 1019 [1] = assay: MIC determination (NCCLS broth method); type: cell-based, Aspergillus fumigatus
# Text: as §1
# A fumigatus J - 1032 = assay: MIC determination (NCCLS broth method); type: cell-based, Aspergillus fumigatus
# Text: as §1
# A fumigatus 1008 [2] = assay: MIC determination (NCCLS broth method); type: cell-based, Aspergillus fumigatus
# Text: as §1
# A fumigatus II - 1012 = assay: MIC determination (NCCLS broth method); type: cell-based, Aspergillus fumigatus
# Text: as §1
# A fumigatus K - 1033 = assay: MIC determination (NCCLS broth method); type: cell-based, Aspergillus fumigatus
# Text: as §1
# Penicillium 1641 [3] = assay: MFC determination (subculture on Sabouraud Dextrose Agar); type: cell-based
# Text: as §1
# A niger P1 - 1046 = assay: as above; type: cell-based
# Text: as §1
# C krusei 6258 = assay: as above; type: cell-based
# Text: as §1
# A niger E5 - 1047 [4] = assay: as above; type: cell-based
# Text: as §1
# Rhizopus (Ceylon) = assay: as above; type: cell-based
# Text: as §1
# Rhizopus 1052 [5] = assay: as above; type: cell-based
# Text: as §1
# Penicillium 2306 = assay: as above; type: cell-based
# Text: as §1
# Alternaria 1051 = assay: as above; type: cell-based
# Text: as §1
# A flavus P2 - 1045 = assay: as above; type: cell-based
# Text: as §1
# Penicillium H - 1048 = assay: as above; type: cell-based
# Text: as §1
# Mucor (Ceylon) = assay: as above; type: cell-based
# Text: as §1
# Penicillium 191 [6] = assay: as above; type: cell-based
# Text: as §1
# Fusarium 18270 = assay: as above; type: cell-based; conditions: Fusarium 18270
# Text: as §1
# Penicillium 2548 = assay: as above; type: cell-based
# Text: as §1
# Penicillium I - 1049 = assay: as above; type: cell-based
# Text: as §1
# Penicillium 31620 = assay: as above; type: cell-based
# Text: as §1
# A flavus E3 - 1044 = assay: as above; type: cell-based
# Text: as §1
# C parapsilosis 22019 = assay: as above; type: cell-based
# Text: as §1
# P variotii 22319 [7] = assay: MIC determination (NCCLS broth method); type: cell-based, Paecillomyces variotii
# Text: as §1
# Penicillium 1641 [8] = assay: MIC determination (NCCLS broth method); type: cell-based
# Text: as §1
# A flavus E4 - 1042 [9] = assay: MIC determination (NCCLS broth method); type: cell-based
# Text: as §1
# A niger E5 - 1047 [10] = assay: MIC determination (NCCLS broth method); type: cell-based
# Text: as §1
# C glabrata 90030 = assay: MIC determination (NCCLS broth method); type: cell-based
# Text: as §1
# Rhizopus 1052 [11] = assay: MIC determination (NCCLS broth method); type: cell-based
# Text: as §1
# Penicillium 191 [12] = assay: MIC determination (NCCLS broth method); type: cell-based
# Text: as §1
# C tropicalis 750 = assay: MIC determination (NCCLS broth method); type: cell-based
# Text: as §1
# A fumigatus SI-1 - 1019 [13] = assay: MFC determination (subculture on Sabouraud Dextrose Agar); type: cell-based, Aspergillus fumigatus
# Text: as §1
# A fumigatus 1008 [14] = assay: as above; type: cell-based, Aspergillus fumigatus
# Text: as §1
# P variotii 22319 [15] = assay: as above; type: cell-based, Paecillomyces variotii
# Text: as §1
# C albicans A-26 = assay: MIC determination (NCCLS broth method); type: cell-based, Candida albicans
# Text: as §1
# A flavus E4 - 1042 [16] = assay: MFC determination (subculture on Sabouraud Dextrose Agar); type: cell-based
# Text: as §1
# A flavus P3 - 1041 = assay: as above; type: cell-based
# Text: as §1
compound,measurement,setting,value
"C[C@@H](n1ncn(-c2ccc(OCC(F)(F)C(F)F)cc2)c1=O)[C@](O)(Cn1cncn1)c1ccc(F)cc1F [TAK 187, 2-[(1R,2R)-2-(2,4-difluorophenyl)-2-hydroxy-1-methyl-3-(1H-1,2,4-triazol-1-yl)propyl]-4-(2′,2′,3′,3′-tetraflouropropoxyphenyl)-3(2H,4H)-1,2,4-triazolone]",Minimum Inhibitory Concentration (MIC),C neoformans M-106,0.06 µg/mL
same,Minimum Inhibitory Concentration (MIC),C neoformans I,0.03 µg/mL
same,Minimum Inhibitory Concentration (MIC),C albicans Y01.19,2 µg/mL
same,Minimum Inhibitory Concentration (MIC),A fumigatus L - 1034,4 µg/mL
same,Minimum Inhibitory Concentration (MIC),A fumigatus PGI - 1023,8 µg/mL
same,Minimum Inhibitory Concentration (MIC),A fumigatus I - 1011,4 µg/mL
same,Minimum Inhibitory Concentration (MIC),A fumigatus SI-1 - 1019 [1],2 µg/mL
same,Minimum Inhibitory Concentration (MIC),A fumigatus J - 1032,4 µg/mL
same,Minimum Inhibitory Concentration (MIC),A fumigatus 1008 [2],4 µg/mL
same,Minimum Inhibitory Concentration (MIC),A fumigatus II - 1012,8 µg/mL
same,Minimum Inhibitory Concentration (MIC),A fumigatus K - 1033,8 µg/mL
same,Minimum Fungicidal Concentration (MFC),Penicillium 1641 [3],32 µg/mL
same,Minimum Fungicidal Concentration (MFC),A niger P1 - 1046,0.5 µg/mL
same,Minimum Fungicidal Concentration (MFC),C krusei 6258,64 µg/mL
same,Minimum Fungicidal Concentration (MFC),A niger E5 - 1047 [4],2 µg/mL
same,Minimum Fungicidal Concentration (MFC),Rhizopus (Ceylon),>128 µg/mL
same,Minimum Fungicidal Concentration (MFC),Rhizopus 1052 [5],32 µg/mL
same,Minimum Fungicidal Concentration (MFC),Penicillium 2306,16 µg/mL
same,Minimum Fungicidal Concentration (MFC),Alternaria 1051,16 µg/mL
same,Minimum Fungicidal Concentration (MFC),A flavus P2 - 1045,32 µg/mL
same,Minimum Fungicidal Concentration (MFC),Penicillium H - 1048,>128 µg/mL
same,Minimum Fungicidal Concentration (MFC),Mucor (Ceylon),>128 µg/mL
same,Minimum Fungicidal Concentration (MFC),Penicillium 191 [6],16 µg/mL
same,Minimum Fungicidal Concentration (MFC),Fusarium 18270,32 µg/mL
same,Minimum Fungicidal Concentration (MFC),Penicillium 2548,16 µg/mL
same,Minimum Fungicidal Concentration (MFC),Penicillium I - 1049,128 µg/mL
same,Minimum Fungicidal Concentration (MFC),Penicillium 31620,16 µg/mL
same,Minimum Fungicidal Concentration (MFC),A flavus E3 - 1044,8 µg/mL
same,Minimum Fungicidal Concentration (MFC),C parapsilosis 22019,0.03 µg/mL
same,Minimum Inhibitory Concentration (MIC),P variotii 22319 [7],0.25 µg/mL
same,Minimum Inhibitory Concentration (MIC),Penicillium 1641 [8],16 µg/mL
same,Minimum Inhibitory Concentration (MIC),A flavus E4 - 1042 [9],4 µg/mL
same,Minimum Inhibitory Concentration (MIC),A niger E5 - 1047 [10],2 µg/mL
same,Minimum Inhibitory Concentration (MIC),C glabrata 90030,0.5 µg/mL
same,Minimum Inhibitory Concentration (MIC),Rhizopus 1052 [11],8 µg/mL
same,Minimum Inhibitory Concentration (MIC),Penicillium 191 [12],16 µg/mL
same,Minimum Inhibitory Concentration (MIC),C tropicalis 750,0.125 µg/mL
same,Minimum Fungicidal Concentration (MFC),A fumigatus SI-1 - 1019 [13],32 µg/mL
same,Minimum Fungicidal Concentration (MFC),A fumigatus 1008 [14],8 µg/mL
same,Minimum Fungicidal Concentration (MFC),P variotii 22319 [15],32 µg/mL
"C[C@@H]1[C@H](O)[C@@H](C)/C=C/C=C/C=C/C=C/C=C/C=C/C=C/[C@H](O[C@@H]2O[C@H](C)[C@@H](O)[C@H](N)[C@@H]2O)C[C@@H]2O[C@](O)(C[C@@H](O)C[C@@H](O)[C@H](O)CC[C@@H](O)C[C@@H](O)CC(=O)O[C@H]1C)C[C@H](O)[C@H]2C(=O)O [Amphotericin-B, Amphotericin B]",Minimum Inhibitory Concentration (MIC),C neoformans M-106,0.03 µg/mL
same,Minimum Inhibitory Concentration (MIC),C neoformans I,0.06 µg/mL
same,Minimum Inhibitory Concentration (MIC),C albicans A-26,0.25 µg/mL
same,Minimum Inhibitory Concentration (MIC),C albicans Y01.19,0.125 µg/mL
same,Minimum Inhibitory Concentration (MIC),A fumigatus L - 1034,0.25 µg/mL
same,Minimum Inhibitory Concentration (MIC),A fumigatus PGI - 1023,0.125 µg/mL
same,Minimum Inhibitory Concentration (MIC),A fumigatus I - 1011,0.25 µg/mL
same,Minimum Inhibitory Concentration (MIC),A fumigatus SI-1 - 1019 [1],0.5 µg/mL
same,Minimum Inhibitory Concentration (MIC),A fumigatus J - 1032,0.25 µg/mL
same,Minimum Inhibitory Concentration (MIC),A fumigatus 1008 [2],0.25 µg/mL
same,Minimum Inhibitory Concentration (MIC),A fumigatus II - 1012,0.125 µg/mL
same,Minimum Inhibitory Concentration (MIC),A fumigatus K - 1033,0.125 µg/mL
same,Minimum Fungicidal Concentration (MFC),Penicillium 1641 [3],16 µg/mL
same,Minimum Fungicidal Concentration (MFC),A flavus E4 - 1042 [16],0.125 µg/mL
same,Minimum Fungicidal Concentration (MFC),A niger P1 - 1046,0.25 µg/mL
same,Minimum Fungicidal Concentration (MFC),C krusei 6258,1 µg/mL
same,Minimum Fungicidal Concentration (MFC),A niger E5 - 1047 [4],0.25 µg/mL
same,Minimum Fungicidal Concentration (MFC),Rhizopus (Ceylon),64 µg/mL
same,Minimum Fungicidal Concentration (MFC),Rhizopus 1052 [5],8 µg/mL
same,Minimum Fungicidal Concentration (MFC),Penicillium 2306,0.5 µg/mL
same,Minimum Fungicidal Concentration (MFC),A flavus P3 - 1041,0.5 µg/mL
same,Minimum Fungicidal Concentration (MFC),Alternaria 1051,>128 µg/mL
same,Minimum Fungicidal Concentration (MFC),A flavus P2 - 1045,1 µg/mL
same,Minimum Fungicidal Concentration (MFC),Penicillium H - 1048,2 µg/mL
same,Minimum Fungicidal Concentration (MFC),Mucor (Ceylon),1 µg/mL
same,Minimum Fungicidal Concentration (MFC),Penicillium 191 [6],2 µg/mL
same,Minimum Fungicidal Concentration (MFC),Penicillium 2548,4 µg/mL
same,Minimum Fungicidal Concentration (MFC),Penicillium I - 1049,4 µg/mL
same,Minimum Fungicidal Concentration (MFC),Penicillium 31620,0.25 µg/mL
same,Minimum Fungicidal Concentration (MFC),A flavus E3 - 1044,0.5 µg/mL
same,Minimum Fungicidal Concentration (MFC),C parapsilosis 22019,32 µg/mL
same,Minimum Inhibitory Concentration (MIC),P variotii 22319 [7],0.03 µg/mL
same,Minimum Inhibitory Concentration (MIC),Penicillium 1641 [8],0.06 µg/mL
same,Minimum Inhibitory Concentration (MIC),A flavus E4 - 1042 [9],0.125 µg/mL
same,Minimum Inhibitory Concentration (MIC),A niger E5 - 1047 [10],0.25 µg/mL
same,Minimum Inhibitory Concentration (MIC),C glabrata 90030,0.25 µg/mL
same,Minimum Inhibitory Concentration (MIC),Rhizopus 1052 [11],0.06 µg/mL
same,Minimum Inhibitory Concentration (MIC),Penicillium 191 [12],0.25 µg/mL
same,Minimum Inhibitory Concentration (MIC),C tropicalis 750,0.25 µg/mL
same,Minimum Fungicidal Concentration (MFC),A fumigatus SI-1 - 1019 [13],2 µg/mL
same,Minimum Fungicidal Concentration (MFC),A fumigatus 1008 [14],1 µg/mL
same,Minimum Fungicidal Concentration (MFC),P variotii 22319 [15],2 µg/mL
